Where two headings read alike, the source gives them in different places.
Key:
mice or rat pups = assay: Safety profile of AVR-48 in mice or rat pups (IV, SC, IN; MTD/NOAEL); format: in vivo
Description: (§1) Safety Profile of AVR-48. To assess the safety of AVR-48 (compound 8), two doses of intravenous (IV) slow bolus injections or subcutaneous (SC) injections or intranasal (IN) instillation were given to mice or rat pups (postnatal day 3-5 or P3-P5), >6 h apart. The total daily doses were up to 100 mg/kg/day IV, and up to 150 mg/kg/day SC, for 3 consecutive days. […] There was no change in any of the hematological or clinical chemistry parameters. Signs of discoloration, swelling, and macroscopic and microscopic signs of local irritation occurred at the site of administration in all treatment groups and were attributed to the administration vehicle (formulation of 10% DMSO, 20% Tetraglycol, and 20% PEG 400 in sterile water). […] Based on the parameters monitored in this study, the maximum tolerated dose (MTD) and no-observed-adverse-effect level (NOAEL) were considered to be 100 mg/kg/day via IV and 150 mg/kg/day via SC routes of dosing.
(§2) Animals. C57BL/6J mice were purchased from The Jackson Laboratory (Bar Harbor, ME, USA) and were maintained in a breeding colony at Drexel University, Philadelphia, PA, USA. Animal procedures were performed in accordance with the NIH Guide for the Care and Use of Laboratory Animals and were approved by the Institutional Animal Care and Use Committee (IACUC) of Drexel University Philadelphia, PA (Protocol No. 20706). Neonatal rat pups born from female pregnant Sprague Dawley Crl:CD (SD) rats (Charles River Laboratories, St-Constant, QC, Canada) were used for the toxicology and PK studies to evaluate safety, determine the maximum tolerated dose (MTD) and the PK profile of AVR-48. A minimum 6-day acclimation period was allowed between receipt of the animals and the start of treatment to accustom the rats to the laboratory environment. All rat studies were approved by the IACUC of ITR Laboratories, Canada (Protocol No. 74691).
(§3) Formulation of AVR-48 for efficacy and toxicokinetic studies. For the mouse dose response efficacy studies, AVR-48 was reconstituted in 0.9% sterile normal saline to give a final dose concentration of […] as a colorless solution, and injected IP (30 μl) on P2 and P4. The PLGA encapsulated AVR-48 or the GFP-tagged analog was resuspended in deionized sterile water to make a nanosuspension with final dose concentration of 0.025, 0.05 and 0.11 mg/kg/drop. The surfactant Curosurf® (Cheisi Parma, Italy), available commercially, was delivered IN at a volume of 3 μl per nostril, on P2 and P4. For the toxicokinetic study of AVR-48 in rat pups, a formulation of 10% DMSO, 20% tetraglycol, 20% PEG 400, and 50% sterile water was made fresh before administration (Shah, Das et al. 2021).
(§4) Statistical Analysis. All statistical analyses were performed using Graph Pad Prism version 7.0 (GraphPad Software, San Diego, CA). The data are expressed as the mean±SEM with n=5 to 7 mice in each group. Groups were compared with the two-tailed unpaired t-test and one- or two-way analysis of variance (ANOVA), as appropriate. P<0.05 was considered statistically significant. For the toxicology and PK study, a generalized Analysis of Variance/Covariance (ANOVA/ANCOVA) test was performed on the numerical data (3 or more animals/groups) on the study as follows: An automatic transformation was used to analyze the data for homogeneity of variance using Levene's test. Parametric and non-parametric trends were analyzed using the Williams and the Shirley-Williams tests, respectively. Homogeneous data was analyzed using the ANOVA/ANCOVA, and the significance of intergroup differences between the control and test item-treated groups was analyzed using Dunnett's test. Heterogeneous data was analyzed using Kruskal-Wallis test and the significance of intergroup differences between the control and test item-treated groups was assessed using a nonparametric Dunnett's test. All data are reported as ±SEM. […]

[1] = as above; format: in vivo; details: C57BL/6J (mouse), Sprague Dawley Crl:CD (rat), mouse, rat, in vivo; for MTD at 3 days: read-out: maximum tolerated dose (MTD); for NOAEL at 3 days: read-out: no-observed-adverse-effect level (NOAEL)
Description: as §1, §2, §3, §4

## CC(=O)N[C@@H]1C(Oc2ccc([N+](=O)[O-])cc2)OC(CO)C(O)C1O (stereo partly drawn) [AVR-48]
Mice or rat pups; high dose of 100 mg/kg
  toxic effects in the visceral organs: did not have any toxic effects
Mice or rat pups; in vivo
  hematological or clinical chemistry parameters: no change
Mice or rat pups; juvenile mouse, minimum efficacious dose 5 mg/kg/day vs NOAEL 100 mg/kg/day
  therapeutic index: 20 fold
Mice or rat pups; mouse and rat pups
  systemic gross observations at necropsy in the visceral organs: no evidence of any AVR-48 related systemic gross observations
Mice or rat pups; treated animals, considered non-adverse, not dose dependent
  white blood cell count, lymphocyte count (females only), total bilirubin (SC groups only): slight decrease
Mice or rat pups; twice daily IV at 50 mg/kg/dose vs vehicle IV
  injection site findings: higher incidence of dermal/subcutaneous hemorrhage at the injection site
Mice or rat pups; two doses/day >6 h apart, up to 100 mg/kg/day IV, up to 150 mg/kg/day SC, 3 consecutive days, P3-P5 pups
  tolerability of all doses: well tolerated
Mice or rat pups; up to 100 mg/kg/day IV, up to 150 mg/kg/day SC, 3 days
  adverse clinical signs and body weight: no observed adverse clinical signs and or any change in body weight
[1]; iv
  MTD at 3 days: 100 mg/kg/day
  NOAEL at 3 days: 100 mg/kg/day
[1]; sc
  MTD at 3 days: 150 mg/kg/day
  NOAEL at 3 days: 150 mg/kg/day

— patent US12440471B2, “Compositions and methods for the treatment of bronchopulmonary dysplasia (BPD) and BPD-associated pulmonary hypertension” (AyuVis Research, Inc., priority 2021, dated 2025)
